Measured values taken from US20240058373A1, “FIBRE MIXTURE FOR YOUNG CHILDREN” (N.V. Nutricia, priority 2020, published 2024).

Test system: standard human gut microbiota pool
Assay: i-screen fermentation of fibres by faecal microbiota: pH and SCFA/BCFA formation
Type: cell-based
Settings: after 24 h of fermentation in SIEM medium at 37° C., fibres 10 mg/ml
Description: For studying fermentation of fibres by microbiota the i-screen platform was used, see Schuren et al., The i-screen: A Versatile Preclinical Platform for Gut Microbiota Studies, J Prob Health 2019 7:212. A standard human gut microbiota pool was used for the fermentation. This pool was established via fecal donations from 6 healthy volunteers (Caucasian individuals, age 25-60 years, no antibiotic use in the 3 months preceding the donation, self-assessment of health status). Before starting the i-screen fermentation with the test compounds, the standardized fecal pool was incubated in SIEM (standard ileal effluent medium) under anaerobic conditions overnight (37° C.; 300 rpm) in order to activate the bacteria.
The fibres were tested at a concentration of 10 mg/ml. All compounds were tested in triplicate.
The following conditions were applied: • 1 No added fibres, SIEM medium only • 2 Mixture of beta-galactooligosaccharides (Vivinal GOS, Friesland Campina), inulin (Orafti HP (Beneo-Orafti Orey) Beneo BE), resistant starch (Novelose 330 (Ingredion UK Ltd) and non-soluble soy polysaccharides, source Fibrim 2000 (DuPont/Danisco) in a weight ratio of 38:38:4:20, prior art MF4 • 3 Mixture of beta-galactooligosaccharides (Vivinal GOS, Friesland Campina), inulin (Orafti HP (Beneo-Orafti Orey) Beneo BE), resistant starch (Novelose 330 (Ingredion UK Ltd) and soluble soy polysaccharides, source Soyafibe-S-Ca100 (Fuji Oil Co, Ltd), in a weight ratio of 38:38:4:20, new MF4 • 4 Lactulose (Duphalac Lactulose, Solvay, the Netherlands)
After 24 hours of fermentation in SIEM medium at 37° C., samples were collected for pH measurements, DNA isolation and for metabolite analysis. The remaining material was stored at −20° C.
DNA was isolated as described by Ladirat et al. J Microbiol Meth 2013, 92(3), 387-397 with some minor adjustments: the samples were initially mixed with 300 μl lysis buffer (Agowa, Berlin, Germany), 500 μl zirconium beads (0.1 mm), and 500 μl phenol, before being introduced to a Bead Beater (BioSpec Products, Bartlesville, OK, USA) for 3 min. 16S amplicon sequencing DNA was analyzed by using 16S rDNA amplicon sequencing. The V4 hypervariable region was targeted. […] Amplicon quality and size were analyzed on a Fragment Analyzer (Advanced Analytical Technologies, Inc.). […] SCFA covering acetate, propionate, and n-butyrate and branched chain fatty acids (BCFA) covering iso-butyrate and iso-valerate were analyzed as described by as described by Van Nuenen Microbiology in Health and Disease 2003, 15: 137-144. […]
For the analysis of total lactate, material resulting from the i-screen fermentation was sampled and centrifuged at 4,000 g for 5 minutes. […] The D- and L-lactate were determined by the Arena 20XL analyser. […]

OC[C@H]1O[C@@H](O[C@@H]2[C@@H](CO)OC(O)(CO)[C@H]2O)[C@H](O)[C@@H](O)[C@H]1O (mixture of isomers) [lactulose, Lactulose]
Mean Butyrate: 49.39 mM
Mean Propionate: 6.61 mM
Mean Acetate (value (s.d.)): 44.93 (1.40) mM
Mean Total SCFA (value (s.d.)): 100.9 (2.67) mM
